Laboratory results taken from PubChem BioAssay AID1918955 (Molecular Pharmacology Branch, DTP, NCI, 2023).

Test system: NCI/ADR-RES complex spheroid viability
Assay: Anticancer human tumor NCI/ADR-RES cell line growth inhibition;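 note: spheroids exposed to compounds for 7 days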;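 for viability, T/C: 100% = DMSO vehicle treated spheroids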
Conditions: for IC50: curve of first compound; for viability, T/C: stronger effect = lower value
Outline: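 Multicellular complex spheroids of tumor cells with human endothelial cells (HUVEC) and mesenchymal stem cells; the LSD1 inhibitor iadademstat was combined with standard-of-care or investigational agents. Top concentration at or near clinical Cmax, half-log dilutions; final DMSO ≤0.25%.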

[1] = second compound 0.1 µM, first compound 0.0316 µM
[2] = second compound 0.1 µM, first compound 0.1 µM
[3] = second compound 0.1 µM, first compound 0.316 µM
[4] = second compound 0.1 µM, first compound 1 µM
[5] = second compound 0.1 µM, first compound 3.16 µM
[6] = second compound 0.1 µM, first compound 10 µM
[7] = second compound 0.316 µM, first compound 0.0316 µM
[8] = second compound 0.316 µM, first compound 0.1 µM
[9] = second compound 0.316 µM, first compound 0.316 µM
[10] = second compound 0.316 µM, first compound 1 µM
[11] = second compound 0.316 µM, first compound 3.16 µM
[12] = second compound 0.316 µM, first compound 10 µM
[13] = second compound 1 µM, first compound 0.0316 µM
[14] = second compound 1 µM, first compound 0.1 µM
[15] = second compound 1 µM, first compound 0.316 µM
[16] = second compound 1 µM, first compound 1 µM
[17] = second compound 1 µM, first compound 3.16 µM
[18] = second compound 1 µM, first compound 10 µM
[19] = second compound 3.16 µM, first compound 0.0316 µM
[20] = second compound 3.16 µM, first compound 0.1 µM
[21] = second compound 3.16 µM, first compound 0.316 µM
[22] = second compound 3.16 µM, first compound 1 µM
[23] = second compound 3.16 µM, first compound 3.16 µM
[24] = second compound 3.16 µM, first compound 10 µM
[25] = second compound 10 µM, first compound 0.0316 µM
[26] = second compound 10 µM, first compound 0.1 µM
[27] = second compound 10 µM, first compound 0.316 µM
[28] = second compound 10 µM, first compound 1 µM
[29] = second compound 10 µM, first compound 3.16 µM
[30] = second compound 10 µM, first compound 10 µM

Structure (SMILES) | IC50 (second compound 0.1 µM) [µM] | IC50 (second compound 0.316 µM) [µM] | IC50 (second compound 1 µM) [µM] | IC50 (second compound 3.16 µM) [µM] | IC50 (second compound 10 µM) [µM] | viability, T/C [1] [%] | viability, T/C [2] [%] | viability, T/C [3] [%] | viability, T/C [4] [%] | viability, T/C [7] [%] | viability, T/C [8] [%] | viability, T/C [9] [%] | viability, T/C [10] [%] | viability, T/C [13] [%] | viability, T/C [14] [%] | viability, T/C [15] [%] | viability, T/C [16] [%] | viability, T/C [19] [%] | viability, T/C [20] [%] | viability, T/C [21] [%] | other results
CC1COCCN1c1cc(C2(S(C)(=N)=O)CC2)nc(-c2ccnc3[nH]ccc23)n1 (stereo not given) + NC1CC1c1ccc(-c2cccc(O)c2)cc1 | 7 | 9.41 | 6.18 | 6.48 | 5.36 | 108 | 108 | 97.4 | 90 | 110 | 104 | 103 | 91.8 | 96.4 | 97.4 | 93.8 | 90.1 | 101 | 95.1 | 95.8 | viability, T/C [5]: 71.5%; viability, T/C [6]: 40.4%; viability, T/C [11]: 73.2%; viability, T/C [12]: 48.7%; viability, T/C [17]: 64.8%; viability, T/C [18]: 39.4%; viability, T/C [22]: 86%; viability, T/C [23]: 65.4%; viability, T/C [24]: 40.6%; viability, T/C [25]: 93.2%; viability, T/C [26]: 94.1%; viability, T/C [27]: 84.9%; viability, T/C [28]: 71.6%; viability, T/C [29]: 61.3%; viability, T/C [30]: 38.5%
COc1ccc([C@@H](O)c2cc(-c3ncnc4cc(N5CCOCC5)ccc34)c(F)cc2Cl)nn1 + NC1CC1c1ccc(-c2cccc(O)c2)cc1 | 3.05 | 3.24 | 3.23 | 3.25 | 1.94 | 106 | 99.8 | 84.8 | 68.4 | 106 | 105 | 92.7 | 74 | 105 | 99.1 | 90.6 | 73.1 | 101 | 96 | 83.4 | viability, T/C [5]: 50.7%; viability, T/C [6]: 25.9%; viability, T/C [11]: 51.4%; viability, T/C [12]: 27.7%; viability, T/C [17]: 50.5%; viability, T/C [18]: 25.7%; viability, T/C [22]: 72.4%; viability, T/C [23]: 50.5%; viability, T/C [24]: 22.6%; viability, T/C [25]: 84.6%; viability, T/C [26]: 87.3%; viability, T/C [27]: 77%; viability, T/C [28]: 61.8%; viability, T/C [29]: 41.4%; viability, T/C [30]: 23.2%
O=C(C=Cn1cnc(-c2cc(C(F)(F)F)cc(C(F)(F)F)c2)n1)NNc1cnccn1 + NC1CC1c1ccc(-c2cccc(O)c2)cc1 | 0.0047 | 0.00442 | 0.00418 | 0.00479 | 0.00402 | 13 | 6.61 | 1.72 | 0.88 | 12.6 | 7.91 | 2.06 | 1.08 | 13.9 | 8.19 | 1.99 | 0.85 | 16.5 | 10.7 | 2.96 | viability, T/C (second compound 0.1 µM, first compound 0.00316 µM): 65.4%; viability, T/C (second compound 0.1 µM, first compound 0.01 µM): 19.6%; viability, T/C (second compound 0.316 µM, first compound 0.00316 µM): 60.6%; viability, T/C (second compound 0.316 µM, first compound 0.01 µM): 23.3%; viability, T/C (second compound 1 µM, first compound 0.00316 µM): 59.5%; viability, T/C (second compound 1 µM, first compound 0.01 µM): 20.4%; viability, T/C (second compound 3.16 µM, first compound 0.00316 µM): 64.2%; viability, T/C (second compound 3.16 µM, first compound 0.01 µM): 22.7%; viability, T/C [22]: 0.98%; viability, T/C (second compound 10 µM, first compound 0.00316 µM): 57.1%; viability, T/C (second compound 10 µM, first compound 0.01 µM): 22.1%; viability, T/C [25]: 16%; viability, T/C [26]: 10.1%; viability, T/C [27]: 5.13%; viability, T/C [28]: 2.52%
